The test system of this experiment is E. coli-LPS-activated RAW 264.7 macrophages. The experiment is described as follows: TNF-α and IL-6 secretion ELISA, RAW 264.7. The experiment is classed as cell-based, mouse. The following applies: RAW 264.7, E. coli LPS 0.1 μg/ml 24 h, Fig 1E. As for the experimental part: The expression levels of IL-1β, IL-6 and TNF-α in the conditional medium, sera and lavage fluids were measured by ELISA as described in detail previously.
Fig 1 Effects of GW-A2 on the expression levels of inflammatory mediators. (A) RAW 264.7 macrophages were incubated for 30 min with or without GW-A2 or scrambled GW-A2, followed by incubation with or without 0.1 μg/ml of E. coli LPS or Salmonella LPS for 24 h. The levels of NO in the culture medium were measured by the Griess reaction. (B) RAW 264.7 macrophages were incubated for 30 min with or without GW-A2, followed by incubation with or without peptidoglycan (20 μg/ml), Pam3CSK4 (0.2 μg/ml) or capsular polysaccharide (3 μg/ml) for 24 h. The levels of NO in the culture medium were measured by the Griess reaction. […] The levels of iNOS and COX-2 were assessed by Western blotting and the histograms represent the expression levels compared to the LPS alone group obtained in three different experiments. […] The mRNA levels of iNOS and COX-2 were assessed by quantitative real-time PCR. […] The cell proliferation was measured by AlamarBlue® assay. The data are expressed as the mean ± SD of three independent experiments. *, ** and *** indicate significant differences, representing p < 0.05, p < 0.01 and p < 0.001, respectively compared to stimulation alone. # indicates significant differences, representing p < 0.05 compared to 2 μM of GW-A2 group.

No end group written: not given here.

With GAKYAKIIYNYLKKIANALW [GW-A2], the IL-6 secretion level entry is on record as “reduced” and the TNF-α secretion level result is reported as “reduced”.

Source of the values: PMC5531531, “A synthetic cationic antimicrobial peptide inhibits inflammatory response and the NLRP3 inflammasome by neutralizing LPS and ATP” (PLoS ONE, 2017).
